# Measurements from patent publication US20150353626A1, “APOLIPOPROTEIN A-I DERIVED PEPTIDES FOR TREATMENT OF HYPERGLYCAEMIA” (priority 2013, published 2015).
# Assays:
# [1] = test system: L6 myotubes; assay: Glucose uptake in L6 myotubes (2-[3H]-deoxy-D-glucose); format: cell-based
# Protocol: L6 myoblasts (ATCC #CRL-1458) were grown in α-MEM (Invitrogen) supplemented with 10% FBS (Sigma) and 1% antibiotic/antimycotic (Penicillin, streptomycin, amphotericin B; Invitrogen). Differentiation to myotubes was achieved by switching from growth media to 2% FBS a-MEM for 6-7 or 6-12 days. Cells were maintained at 37° C. and 5% CO2.
# Prior to stimulation (or treatment) cells were starved for 2 hours in serum-free a-MEM and all subsequent treatments, which were performed in triplicate and included cytochalasin B (Sigma) as a measure of cell associated non-specific radioactivity, were performed in uptake buffer (140 mmol/l NaCl, 20 mmol/l HEPES, 5 mmol/l KCl, 2.5 mmol/l MgSO4, 1 mmol/l CaCl2, pH 7.4). After stimulation, treatments were replaced with 10 μmol/l 2-deoxy-D-glucose (Sigma), 10 μmol/l 2-[3H]-deoxy-D-glucose (Perkin Elmer) in uptake buffer for 15 mins at room temperature. Cells were then washed twice with ice cold PBS and lysed with 1 mol/l NaOH on ice. Lysates were collected and radioactivity quantified by scintillation counting.
# In order to investigate the effect of discodial HDL (rHDL) on GLUT4 translocation and glucose uptake, we produced recombinant human apoA-I and reconstituted HDL needed for cell incubations. L6 myotubes were incubated with 50 μg/ml (1.6 μmol/l) apoA-I for 1 hour followed by a glucose uptake assay as described above. […] Next, L6 myotubes were treated by incubation with 50 μg/ml discodial rHDL (expressed as total concentration of apoA-I in rHDL, given 2 apoA-I molecules per particle) for 1 hour. […] This experiment was thereafter repeated in more controlled manner including cell number and quality (cells were similarly treated during differentiation from myoblasts to multinuclear myotubes, with respect to the time between splitting cells, cell density, passage of cells used.) (FIG. 7c).
# The relative effect of specific regions of apoA-I to increase glucose uptake was investigated using truncated protein fragments corresponding to residues 1-189 (N-terminal/central domain), 44-189 (central domain), 44-243 (central/C-terminal domain) and 190-243 (C-terminal domain) of full-length apoA-I (FIG. 4a). The treatments with incubation of truncated protein fragments were performed as described above for treatment of L6 myotubes with full-length apoA-I and followed by a glucose uptake assay as described above.
# To test for the contribution of the constituent phospholipid to rHDL-induced glucose uptake in L6 myotubes, rHDL made with DMPC was also produced and compared to 100 nm DMPC vesicles containing no apoA-I protein. Stable 100 nm diameter vesicles can be synthesized with DMPC in the absence of apoA-I and was therefore used as a phospholipid control. The effect on the glucose uptake was tested as described above. […] To also test for the contribution of the constituent POPC phospholipid to rHDL-induced glucose uptake, rHDL made with POPC was compared with 100 nm POPC vesicles containing no apoA-I protein.
# [2] = test system: AMPK; assay: Western blot for phosphorylated AMPK in L6 myotube lysates; format: cell-based; conditions: L6 myotubes, 60 minutes; 2, 10 or 20 μmol/l 190-243 peptide; FIG. 8c
# Protocol: Prior to stimulation or treatment cultured myoblast cells were serum starved for 4 hours in serum-free α-MEM and all subsequent treatments, including insulin or phenformin as positive controls (Sigma), were performed in serum free a-MEM. After treatments, cells were washed with ice cold PBS buffer and lysed on ice using a non-denaturing lysis buffer (1% Triton X-100, 50 mmol/l Tris, 150 mmol/l NaCl, pH 8.0) containing protease and phosphatase inhibitors (Roche). Lysates were centrifuged at 16,000×g, 20 minutes at 4° C. and BCA protein assay (Pierce) was performed on supernatants. Equal protein amounts were separated by SDS-PAGE and transferred to nitrocellulose membranes. pAMPK, AMPK, pACC, pAkt, Akt and tubulin were used for immunodetection with IRDye 800CW and 680RD secondary antibodies (LI-COR). Blots were imaged using the Odyssey Fc system and quantified using Image studio v2.0 software.
# To dissect the effect of discoidal rHDL on a non-insulin dependent signaling pathway, we conducted western blotting using lysates from L6 myotubes incubated with rHDL. […] Phenformin was used as a positive control, inducing a 1.98±0.33-fold (p=≦0.05) and 2.7±0.74-fold (p=≦0.05) elevation of phosphorylated AMPK and ACC, respectively, at a concentration of 0.4 mmol/l. […] Representative immunoblots of those quantified for FIGS. 3a, c and f are given in FIGS. 3b, d and e, respectively. […]
# [3] = Circular dichroism spectroscopy, alpha-helical content; format: physicochemical; conditions: 0.2 mg/ml in PBS pH 7.4, 25° C.
# Protocol: CD measurements were performed on a Jasco J-810 spectropolarimeter equipped with a Jasco CDF-4265 Peltier set to 25° C. ApoA-I (full-length and the 190-234 polypeptide fragment) was diluted to 0.2 mg/ml in PBS (final concentration was 25 mmol/l phosphate, 25 mmol/l NaCl, pH 7.4), placed in a 0.1 mm quartz cuvette and, after extensive purging with nitrogen, scanned in the region 200 to 260 nm (scan speed was 20 nm/min). Averages of five scans were baseline-subtracted (PBS; 25 mmol/l phosphate, 25 mmol/l NaCl) and the alpha-helical content was calculated from the molar ellipticity at 222 nm as previously described (Petrlova et al. (2012) J Lipid Res 53: 390-398).
Substance,"glucose uptake, fold change versus control ([1]; apoA-I fragment, 60 minutes, FIGS. 4b and 8b) [fold]",levels of phosphorylated AMPK (in words) [2],helical content from molar ellipticity at 222 nm [3] [%],"glucose uptake over basal/Control, repeated experiment ([1]; 2 μmol/l (60 μg/ml) POPC rHDL or 100 nmol/l insulin, 60 minutes, FIG. 7c) [fold]","glucose uptake over basal ([1]; 50 μg/ml rHDL (as apoA-I) or 100 nmol/l insulin, 1 hour, FIG. 1c, rHDL p=0.095) [fold]","increased glucose uptake ([1]; 2 h serum starved, 50 μg/ml (1.6 μmol/l) apoA-I or 100 nmol/l insulin, 1 hour, FIG. 1b) [fold]"
"190-243 polypeptide fragment: polypeptide fragment consisting of amino acids 190-243 of the full-length human apoA-I protein, C-terminal domain, 54-mer, recombinant (AEYHAKATEHLSTLSEKAKPALEDLRQGLLPVLESFKVSFLSALEEYTKKLNTQ; listed as Homo Sapiens)",1.77±0.23,increased levels of phosphorylated AMPK,28,,,
insulin,,,,2.4±1.0,2.4±1.0,2
